In US8450067B2, “Method for obtaining anti-idiotype antibodies” (Omrix Biopharmaceuticals Inc., priority 2002, dated 2013):
Read-outs that look alike come from different tables or passages of the source.

Assays:
[1] = tested on: immunoglobulin elution peak from a peptide column bound with peptide 707; test: ELISA of peptide column eluate with biotinylated peptides (707 column); type: binding, human; conditions: FIG. 4
Procedure: (§1) To measure the binding efficacy of peptide column eluates (706 and 707) the following ELISA was performed:
(§2) Microtiter plates (Costar, USA) were coated overnight at 2-8° C. with 10 μg/ml NeutrAvidin (Pierce, USA) suspended in 0.1M, pH 8.8, of carbonate-bicarbonate buffer (Sigma USA). The coating solution was removed, washed three times with washing buffer (1×PBS) and 200 μl of blocking solution (freshly prepared 1% I Block, Tropix, USA) per well was added and incubated for 1 hour at 37° C. Coated and blocked plates can be stored at −20° C. for a month before use.
(§3) Tested samples diluted in the blocking solution were mixed in a separate tube with 1 μg/ml (final concentration) of the appropriate biotinylated peptide and the mixture was incubated for 1 hour at 37° C. 100 μl from each reaction tube was then transferred to the blocked microtiter plate and incubated at 37° C. for ½ hour. A 100 μl of 1:5000 Alkaline Phosphatase conjugate goat anti human IgG (Heavy and light chain from Jackson, USA) diluted in the blocking buffer was applied into the microtiter well and incubated for 1 hour. […] The measurement was done photometrically at 405 nm.

[2] = tested on: immunoglobulin eluted from a peptide column bearing the peptide 706; test: ELISA of peptide column eluate with biotinylated peptides (706 column); type: binding, human; conditions: FIG. 3; biotinylated peptide 1 μg/ml
Procedure: as §1, §2, §3

[3] = tested on: control IgG (IgG purified from one donor); test: Direct binding ELISA, negative control immunoglobulin; parameters: species or system human
Procedure: (§4) The binding of anti-Id to the peptides was tested by ELISA.
(§5) ELISA plates were coated by 10 ug/ml of peptides in PBS overnight at 4° C. The plates were blocked with 3% BSA for 1hr at 37° C. Anti-Id was added at different concentrations. IgG purified from one donor was used as negative control.
(§6) The binding of the immunoglobulin was probed with goat anti-human IgG conjugated to alkaline phosphatase and the appropriate substrate. Between each step, extensive washings were performed with 0.05% PBS-Tween.
(§7) The same protocol was used as above, but the peptides used in this study were taken from the literature except for peptide number 1 which is the first peptide in the previous experiment.

[4] = tested on: anti-anti-dsDNA (anti-Id) isolated from IVIG; test: Direct binding of anti-Id to the synthetic peptides by ELISA; parameters: species or system human
Procedure: as §4, §5, §6, §7

[5] = tested on: mice; conditions: responder mice (BALB/c, SJL), cited from earlier work
[6] = Table 2, anti-Id 10 μg/ml, plates coated with 10 ug/ml peptide

| binding of control IgG to peptide (OD at 405 nm) ([3]; Table 2, control IgG 1 μg/ml) | binding of control IgG to peptide (OD at 405 nm) ([3]; Table 2, control IgG 5 μg/ml) | binding of anti-Id to peptide (OD at 405 nm) ([4]; Table 2, anti-Id 1 μg/ml) | binding of anti-Id to peptide (OD at 405 nm) ([4]; Table 2, anti-Id 2.5 μg/ml) | binding of anti-Id to peptide (OD at 405 nm) ([4]; Table 2, anti-Id 5 μg/ml) | binding of anti-Id to peptide (OD at 405 nm) [4, 6] | Substance | other results |
| --- | --- | --- | --- | --- | --- | --- | --- |
|  |  |  |  |  |  | GIWELSKEPSQKVWQMYYGT [Pep R706, reverse order of CDR1, used as a control] | binding of 707 column eluate to biotinylated peptide ([1]; biotinylated peptide 1 μg/ml): reacted even more strongly; binding of 706 column eluate to biotinylated peptide [2]: not |
| 0.013 | 0.016 | 0.046 | 0.269 | 1.329 | 1.815 | KHETTET [Pep 1] | binding of control IgG to peptide (OD at 405 nm) ([3]; Table 3, Control IgG 1 μg/ml): 0.044; binding of control IgG to peptide (OD at 405 nm) ([3]; Table 3, Control IgG 5 μg/ml): 0.043; binding of anti-Id to peptide (OD at 405 nm) ([4]; Table 3 (literature peptides), anti-Id 10 μg/ml): 1.21; binding of anti-Id to peptide (OD at 405 nm) ([4]; Table 3, anti-Id 1 μg/ml): 0.041; binding of anti-Id to peptide (OD at 405 nm) ([4]; Table 3, anti-Id 2.5 μg/ml): 0.074; binding of anti-Id to peptide (OD at 405 nm) ([4]; Table 3, anti-Id 5 μg/ml): 0.216 |
| 0.043 | 0.045 | 0.042 | 0.072 | 0.273 | 1.356 | PLPDWRV [Pep 12] |  |
| 0.069 | 0.078 | 0.112 | 0.099 | 0.387 | 0.748 | DWLYSRS [Pep 13] |  |
| 0.079 | 0.083 | 0.113 | 0.234 | 0.611 | 0.987 | PPQKHLL [Pep 14] |  |
|  |  |  |  |  |  | YYCARFLWEPYAMDYWGQGS [Pep 707, 16.6 monoclonal antibody CDR3-based peptide] | specificity of the elution peak from the column bound with the peptide [1]: reacted in a non-specific manner; induction of SLE-like disease in mice [5]: can cause SLE symptoms; induction of SLE-like disease in mice ([5]; listed as pCDR3): induced a mild SLE-like disease |
| 0.037 | 0.068 | 0.049 | 0.067 | 0.117 | 0.287 | KYKRKYP [Pep 15] |  |
